# According to publication PMC7702303, “Biochemical and transcript level differences between the three human phosphofructokinases show optimisation of each isoform for specific metabolic niches” (Biochemical Journal, 2020):
# B1: Band 3: protein, PFK inhibitor in the published literature (protein, UniProt P02730 1-911, looked up)
# Band 3 anion transport protein: MEELQDDYEDMMEENLEQEEYEDPDIPESQMEEPAAHDTEATATDYHTTSHPGTHKVYVELQELVMDEKNQELRWMEAARWVQLEENLGENGAWGRPHLSHLTFWSLLELRRVFTKGTVLLDLQETSLAGVANQLLDRFIFEDQIRPQDREELLRALLLKHSHAGELEALGGVKPAVLTRSGDPSQPLLPQHSSLETQLFCEQGDGGTEGHSPSGILEKIPPDSEATLVLVGRADFLEQPVLGFVRLQEAAELEAVELPVPIRFLFVLLGPEAPHIDYTQLGRAAATLMSERVFRIDAYMAQSRGELLHSLEGFLDCSLVLPPTDAPSEQALLSLVPVQRELLRRRYQSSPAKPDSSFYKGLDLNGGPDDPLQQTGQLFGGLVRDIRRRYPYYLSDITDAFSPQVLAAVIFIYFAALSPAITFGGLLGEKTRNQMGVSELLISTAVQGILFALLGAQPLLVVGFSGPLLVFEEAFFSFCETNGLEYIVGRVWIGFWLILLVVLVVAFEGSFLVRFISRYTQEIFSFLISLIFIYETFSKLIKIFQDHPLQKTYNYNVLMVPKPQGPLPNTALLSLVLMAGTFFFAMMLRKFKNSSYFPGKLRRVIGDFGVPISILIMVLVDFFIQDTYTQKLSVPDGFKVSNSSARGWVIHPLGLRSEFPIWMMFASALPALLVFILIFLESQITTLIVSKPERKMVKGSGFHLDLLLVVGMGGVAALFGMPWLSATTVRSVTHANALTVMGKASTPGAAAQIQEVKEQRISGLLVAVLVGLSILMEPILSRIPLAVLFGIFLYMGVTSLSGIQLFDRILLLFKPPKYHPDVPYVKRVKTWRMHLFTGIQIICLAVLWVVKSTPASLALPFVLILTVPLRRVLLPLIFRNVELQCLDADDAKATFDEEEGRDEYDEVAMPV
# Columns and labels:
# PFK = system: PFK; set-up: key to Effect (activator or inhibitor of PFK): “+” indicates activator; “-“ indicates inhibitor; settings: cited from earlier work; for Effect (activator or inhibitor of PFK): published literature, ref selected references in Supplementary Table 1
# PFKL = settings: ref Van Schaftingen et al 1981; cited from earlier work
# PFKM = settings: PFKM; ref Sanchez-Martinez et al., 2000; read-out: Kact; cited from earlier work
# recombinant human PFK-L = target: T1, recombinant human PFK-L (Homo sapiens, UniProt P17858); assay: ALDO-TIM-G3PDH enzyme-linked kinetic assay, PFK-L; assay type: biochemical; settings: PFK-L, modulator 1100 µM
# T1 construct: made in house; host or cells: PFK-deficient Saccharomyces cerevisiae
# T1 sequence (P17858 1-780): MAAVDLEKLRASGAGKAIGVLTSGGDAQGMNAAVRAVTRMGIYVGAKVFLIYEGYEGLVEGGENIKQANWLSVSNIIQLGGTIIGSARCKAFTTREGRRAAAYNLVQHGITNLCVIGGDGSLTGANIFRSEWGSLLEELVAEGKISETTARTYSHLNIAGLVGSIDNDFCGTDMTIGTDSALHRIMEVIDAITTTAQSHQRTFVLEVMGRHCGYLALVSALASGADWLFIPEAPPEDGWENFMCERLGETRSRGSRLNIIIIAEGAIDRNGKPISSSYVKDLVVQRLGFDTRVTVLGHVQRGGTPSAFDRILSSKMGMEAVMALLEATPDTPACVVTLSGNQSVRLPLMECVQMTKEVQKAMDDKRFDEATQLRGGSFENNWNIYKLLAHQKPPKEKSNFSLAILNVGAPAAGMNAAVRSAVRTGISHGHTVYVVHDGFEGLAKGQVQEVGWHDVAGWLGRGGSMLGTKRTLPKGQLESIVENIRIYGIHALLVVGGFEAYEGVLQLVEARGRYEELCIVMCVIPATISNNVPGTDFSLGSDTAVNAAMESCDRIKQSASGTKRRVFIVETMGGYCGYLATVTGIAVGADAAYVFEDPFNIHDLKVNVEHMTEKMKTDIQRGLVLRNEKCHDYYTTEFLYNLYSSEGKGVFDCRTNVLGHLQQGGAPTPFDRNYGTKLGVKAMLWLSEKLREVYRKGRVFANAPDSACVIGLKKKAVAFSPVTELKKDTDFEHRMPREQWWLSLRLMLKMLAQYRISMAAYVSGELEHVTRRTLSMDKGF
# Protocol: (§1) Recombinant human PFKs were expressed in PFK-deficient Saccharomyces cerevisiae and purified using the methods described previously, adapting earlier materials and protocols. Production of PFK intended for use in ATP titration experiments used 1 mM F6P as a tetramer stabilising agent in protein purification and storage buffers. Production of PFK intended for use in F6P titration experiments used 1 mM ATP as a tetramer stabilising agent in protein purification and storage buffers. Experimental details on the purification and characterisation procedures including figures showing SDS–PAGE gels of the highly pure PFKs used in the kinetic experiments described in this work have been recently published.
# (§2) Assay buffer consisted of 50 mM TEA, 100 mM KCl, 10 mM MgCl2, 1 mM Tris(2-carboxyethyl)phosphine hydrochloride (TCEP), 10% glycerol, pH 7.4. Assay mix consisted of 5 units/ml glycerol-3-phosphate dehydrogenase (G3PDH, Sigma–Aldrich G6880), 2.5 units/ml aldolase (Sigma–Aldrich A2714), 25 units/ml triosephosphate isomerase (TIM, Sigma–Aldrich T6258), and 1.25 mM NADH. ATP and F6P were obtained from Sigma–Aldrich (A2383 and F3627, respectively). For ATP titrations, 38 µl of buffer or ligand were added to a clear non-binding 96-well plate. 40 µl of assay mix containing 10 mM F6P (final concentration 4 mM) was added and the plate was incubated at 25°C for 5 min. An amount of 2 µl of PFK isoforms were added to each well from stock concentrations of 150 µg/ml and the reaction was immediately started with 20 µl of ATP at varying concentrations. For F6P titrations, 30 µl of buffer or ligand was added to a clear non-binding 96-well plate. An amount of 40 µl of assay mix containing 1.25 mM ATP (final concentration 0.5 mM) was added and the plate was incubated at 25°C for 5 min. An amount of 5 µl of PFK isoforms were added to each well from stock concentrations of 200 µg/ml and the reaction was immediately started with 20 µl F6P at varying concentrations. All ligands and substrates (including ATP) were used at pH 7.4. All metabolites were obtained from Sigma–Aldrich unless otherwise stated. […] A SpectraMax M5 Multi-Mode Microplate Reader was used to measure A340nm at 13 s intervals for 10 min. All experiments were performed in triplicate unless otherwise stated.
# (§3) Time-dependent absorbance change was converted into rate of NADH oxidation (µM s^−1) or specific activity (µmol min^−1 mg protein^−1) using the Beer-Lambert law (molar extinction coefficient of NADH 6.22 mM^−1 cm^−1). The initial rate of reaction was used to avoid accumulation of ADP, which activates PFK, interfering with the determination of kinetic properties. Non-linear regression analysis was performed on substrate titration data using GraphPad Prism 7, with curves fitted using allosteric sigmoidal models, enabling determination of steady-state kinetic values.
# recombinant human PFK-P = target: T2, recombinant human PFK-P (Homo sapiens, UniProt Q01813); assay: ALDO-TIM-G3PDH enzyme-linked kinetic assay, PFK-P; assay type: biochemical; settings: modulator 1100 µM
# T2 construct: made in house; host or cells: PFK-deficient Saccharomyces cerevisiae
# T2 sequence (Q01813 1-784): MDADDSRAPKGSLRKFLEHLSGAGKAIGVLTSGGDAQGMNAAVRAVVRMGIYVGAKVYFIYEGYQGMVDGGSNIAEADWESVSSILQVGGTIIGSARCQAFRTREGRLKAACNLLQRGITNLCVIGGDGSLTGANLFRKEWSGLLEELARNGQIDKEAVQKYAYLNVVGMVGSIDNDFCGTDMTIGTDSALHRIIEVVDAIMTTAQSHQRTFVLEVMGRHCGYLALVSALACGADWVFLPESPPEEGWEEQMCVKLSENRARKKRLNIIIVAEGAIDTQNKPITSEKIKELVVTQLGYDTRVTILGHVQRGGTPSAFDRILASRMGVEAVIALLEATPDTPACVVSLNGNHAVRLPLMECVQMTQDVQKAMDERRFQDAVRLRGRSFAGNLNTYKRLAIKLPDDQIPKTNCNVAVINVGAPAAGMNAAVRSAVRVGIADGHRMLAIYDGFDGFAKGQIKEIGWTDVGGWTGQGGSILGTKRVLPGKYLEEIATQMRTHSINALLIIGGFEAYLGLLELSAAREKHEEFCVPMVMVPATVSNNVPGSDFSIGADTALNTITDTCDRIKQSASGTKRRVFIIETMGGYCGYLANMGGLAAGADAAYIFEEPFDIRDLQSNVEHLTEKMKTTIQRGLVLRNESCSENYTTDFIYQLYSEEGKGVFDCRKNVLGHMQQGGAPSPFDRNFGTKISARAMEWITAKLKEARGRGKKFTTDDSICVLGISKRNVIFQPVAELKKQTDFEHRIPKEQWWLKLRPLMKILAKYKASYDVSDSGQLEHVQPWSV
# Protocol: as §1, §2, §3
# recombinant human PFK-M = target: T3, recombinant human PFK-M (Homo sapiens, UniProt P08237); assay: ALDO-TIM-G3PDH enzyme-linked kinetic assay, PFK-M; assay type: biochemical; settings: modulator 1100 µM
# T3 construct: made in house; host or cells: PFK-deficient Saccharomyces cerevisiae
# T3 sequence (P08237 1-780): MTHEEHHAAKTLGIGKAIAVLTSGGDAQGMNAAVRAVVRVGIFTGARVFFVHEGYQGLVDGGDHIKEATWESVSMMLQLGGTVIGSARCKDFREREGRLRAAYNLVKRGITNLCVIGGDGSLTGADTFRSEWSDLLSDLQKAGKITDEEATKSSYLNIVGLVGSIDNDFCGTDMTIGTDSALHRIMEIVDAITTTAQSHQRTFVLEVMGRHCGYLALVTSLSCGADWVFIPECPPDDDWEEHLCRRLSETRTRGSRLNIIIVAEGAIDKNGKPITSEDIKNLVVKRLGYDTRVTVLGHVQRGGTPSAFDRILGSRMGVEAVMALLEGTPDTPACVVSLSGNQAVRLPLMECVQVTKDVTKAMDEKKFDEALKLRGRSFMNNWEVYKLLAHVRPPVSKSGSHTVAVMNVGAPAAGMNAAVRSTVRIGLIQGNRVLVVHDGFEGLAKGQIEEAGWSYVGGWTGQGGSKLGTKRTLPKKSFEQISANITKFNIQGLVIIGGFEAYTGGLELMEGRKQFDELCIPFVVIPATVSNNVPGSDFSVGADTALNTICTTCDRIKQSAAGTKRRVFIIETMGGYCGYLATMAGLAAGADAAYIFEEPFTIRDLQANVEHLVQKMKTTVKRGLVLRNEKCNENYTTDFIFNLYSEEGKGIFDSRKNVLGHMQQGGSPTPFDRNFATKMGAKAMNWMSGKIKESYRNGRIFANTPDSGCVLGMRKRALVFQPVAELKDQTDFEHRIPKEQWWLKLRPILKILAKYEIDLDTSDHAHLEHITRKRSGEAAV
# Protocol: as §1, §2, §3
# PFKP = settings: ref Sanchez-Martinez et al., 2000; cited from earlier work
# [1] = system: monocyte-derived macrophages; set-up: method as in FANTOM5 database; settings: n = 3, ref FANTOM5 database, cited from earlier work
molecule,measurement,setting,value
O=C1O[C@H]([C@@H](O)CO)C(O)=C1O [Ascorbate],Effect (activator or inhibitor of PFK),PFK,-
"O=C(COP(=O)(O)O)[C@@H](O)[C@H](O)[C@H](O)COP(=O)(O)O [F16BP, fructose 1,6-bisphosphate]",IC50 or AC50 (activator),PFKL,40 µM
same,Effect (activator or inhibitor of PFK),PFK,+
same,EC50,PFKM,1.5 µM
O=P(O)(O)OC[C@H]1O[C@H](OP(=O)(O)O)[C@H](O)[C@@H](O)[C@@H]1O [G16BP],IC50 or AC50 (activator),PFKL,100 µM
same,Effect (activator or inhibitor of PFK),PFK,+
Nc1nc2c(ncn2[C@@H]2O[C@H](COP(=O)(O)OP(=O)(O)O)[C@@H](O)[C@H]2O)c(=O)[nH]1 [GDP],change in kcat^ATP/K0.5^ATP compared with control PFK without modulator,recombinant human PFK-L,−48%
same,K0.5ATP + modulator,"recombinant human PFK-L; F6P 4mM, N=3, mean (SD)",404.4 (65.6) M
same,VmaxATP + modulator,"recombinant human PFK-L; F6P 4mM, N=3, mean (SD)",44.20 (2.84) moles/min/mg
same,change in kcat^ATP/K0.5^ATP compared with control PFK without modulator,recombinant human PFK-P,−0.2%
same,K0.5ATP + modulator,"recombinant human PFK-P; F6P 4mM, N=3, mean (SD)",924.6 (367.7) M
same,VmaxATP + modulator,"recombinant human PFK-P; F6P 4mM, N=3, mean (SD)",31.48 (4.42) moles/min/mg
same,change in kcat^ATP/K0.5^ATP compared with control PFK without modulator,recombinant human PFK-M,+4.3%
[K+] [K+],Effect (activator or inhibitor of PFK),PFK,+
N [NH4+],IC50 or AC50 (activator),PFKP,400 µM
same,Effect (activator or inhibitor of PFK),PFK,+
O=P(O)(O)O [PO4 3-],IC50 or AC50 (activator),PFKP,300 µM
same,Effect (activator or inhibitor of PFK),PFK,+
Nc1nc2c(ncn2[C@@H]2O[C@@H]3COP(=O)(O)O[C@H]3[C@H]2O)c(=O)[nH]1 [cGMP],Effect (activator or inhibitor of PFK),PFK,-
Actin,Effect (activator or inhibitor of PFK),PFK,+
Lactate,Effect (activator or inhibitor of PFK),PFK,-
same,IC50,"PFK; value marked *, asterisk not explained, ref Costa Leite et al., 2007, read-out: IC50 or AC50 (inhibitor)",4600 µM
lipopolysaccharide [LPS],PFK-P transcript level,[1]; monocyte-derived macrophages activated by LPS,10.3 × baseline
same,PFK-L transcript level,[1]; monocyte-derived macrophages after LPS stimulation,1.9 × baseline
B1,Effect (activator or inhibitor of PFK),PFK,-
